Laboratory results taken from patent US11325938B2, “CD73 inhibitors” (ORIC Pharmaceuticals, Inc., priority 2018, dated 2022).

The molecules below were run against CD73 (Homo sapiens (Human), UniProt P21589) (assay: Biochemical assay: inhibition of CD73 activity (AMP hydrolysis, Malachite Green readout)). Conditions: CD73 0.3208 nM, AMP 15 μM, 25 mM Tris-HCl pH 7.4, RT, absorbance 620 nm.
Method in brief: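 Phosphate from AMP hydrolysis (15 μM AMP, 10 min, RT) was detected by Malachite Green absorbance to give IC50s. Enzyme at 320 pM was first exposed 15 min to compounds, dosed from 100 μM in ½-log steps, in Tris pH 7.4 buffer with MgCl2, Brij-35 and BSA.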

Sequence of CD73 (P21589 27-574): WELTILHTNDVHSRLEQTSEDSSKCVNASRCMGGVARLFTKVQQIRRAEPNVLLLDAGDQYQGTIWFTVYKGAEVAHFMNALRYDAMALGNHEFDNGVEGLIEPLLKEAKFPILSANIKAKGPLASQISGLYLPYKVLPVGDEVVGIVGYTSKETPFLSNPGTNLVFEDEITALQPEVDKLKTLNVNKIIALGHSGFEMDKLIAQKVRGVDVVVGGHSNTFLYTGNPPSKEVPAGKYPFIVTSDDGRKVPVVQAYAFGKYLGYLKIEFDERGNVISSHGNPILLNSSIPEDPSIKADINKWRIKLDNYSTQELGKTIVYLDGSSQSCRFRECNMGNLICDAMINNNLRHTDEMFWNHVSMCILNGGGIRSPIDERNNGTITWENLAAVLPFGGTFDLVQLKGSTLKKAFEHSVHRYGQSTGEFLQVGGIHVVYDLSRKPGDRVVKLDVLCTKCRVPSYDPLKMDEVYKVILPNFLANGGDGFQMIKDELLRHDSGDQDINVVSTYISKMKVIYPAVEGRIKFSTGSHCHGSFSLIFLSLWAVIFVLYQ

IC50 | Structure (SMILES)
≤ 100 nM | NC(=O)OCC(CO)(OC[C@H]1O[C@@H](n2ncc3c(NC4CCCC4)nc(Cl)nc32)[C@H](O)[C@@H]1O)P(=O)(O)O (mixture of isomers) [Example 178, rac-(1-(carbamoyloxy)-2-(((2R,3S,4R,5R)-5-(6-chloro-4-(cyclopentylamino)-1H-pyrazolo[3,4-d]pyrimidin-1-yl)-3,4-dihydroxytetrahydrofuran-2-yl)methoxy)-3-hydroxypropan-2-yl)phosphonic acid]
≤ 100 nM | O=P(O)(O)C(CO)(CO)OC[C@H]1O[C@@H](n2ncc3c(NCC4CC4)nc(Cl)nc32)[C@H](O)[C@@H]1O [Example 132, (2-(((2R,3S,4R,5R)-5-(6-chloro-4-((cyclopropylmethyl)amino)-1H-pyrazolo[3,4-d]pyrimidin-1-yl)-3,4-dihydroxytetrahydrofuran-2-yl)methoxy)-1,3-dihydroxypropan-2-yl)phosphonic acid]
≤ 100 nM | O=P(O)(O)[C@@H](Cc1ccccc1)S(=O)(=O)C[C@H]1O[C@@H](n2ncc3c(NC4CCCC4)nc(Cl)nc32)[C@H](O)[C@@H]1O [Example 10, ((R)-1-((((2S,3S,4R,5R)-5-(6-chloro-4-(cyclopentylamino)-1H-pyrazolo[3,4-d]pyrimidin-1-yl)-3,4-dihydroxytetrahydrofuran-2-yl)methyl)sulfonyl)-2-phenylethyl)phosphonic acid]
100 to 1000 nM | CCP(=O)(O)C(CO)(CO)OC[C@H]1O[C@@H](n2ncc3c(NC4CCCC4)nc(Cl)nc32)[C@H](O)[C@@H]1O [Example 112, (2-(((2R,3S,4R,5R)-5-(6-chloro-4-(cyclopentylamino)-1H-pyrazolo[3,4-d]pyrimidin-1-yl)-3,4-dihydroxytetrahydrofuran-2-yl)methoxy)-1,3-dihydroxypropan-2-yl)(ethyl)phosphinic acid]
≤ 100 nM | CC(CO)(OC[C@H]1O[C@@H](n2cnc3c(NC4CCCC4)nc(Cl)nc32)[C@H](O)[C@@H]1O)P(=O)(O)O (stereo partly drawn) [Example 76, (2-(((2R,3S,4R,5R)-5-(2-chloro-6-(cyclopentylamino)-9H-purin-9-yl)-3,4-dihydroxytetrahydrofuran-2-yl)methoxy)-1-hydroxypropan-2-yl)phosphonic acid]
100 to 1000 nM | Nc1nc(Cl)nc2c1cnn2[C@@H]1O[C@H](COC(CO)P(=O)(O)O)[C@@H](O)[C@H]1O (stereo partly drawn) [Example 59, (1-(((2R,3S,4R,5R)-5-(4-amino-6-chloro-1H-pyrazolo[3,4-d]pyrimidin-1-yl)-3,4-dihydroxytetrahydrofuran-2-yl)methoxy)-2-hydroxyethyl)phosphonic acid]
≤ 100 nM | O=P(O)(O)[C@](CO)(COCc1ccccc1)OC[C@H]1O[C@@H](n2ncc3c(NC4CCCC4)nc(Cl)nc32)[C@H](O)[C@@H]1O (racemic) [Example 179, rac-((R)-1-(benzyloxy)-2-(((2R,3S,4R,5R)-5-(6-chloro-4-(cyclopentylamino)-1H-pyrazolo[3,4-d]pyrimidin-1-yl)-3,4-dihydroxytetrahydrofuran-2-yl)methoxy)-3-hydroxypropan-2-yl)phosphonic acid]
≤ 100 nM | COC[C@@H](OC[C@H]1O[C@@H](n2nnc3c(NC4CCCC4)cc(Cl)nc32)[C@H](O)[C@@H]1O)P(=O)(O)O [Example 161, ((S)-1-(((2R,3S,4R,5R)-5-(5-chloro-7-(cyclopentylamino)-3H-[1,2,3]triazolo[4,5-b]pyridin-3-yl)-3,4-dihydroxytetrahydrofuran-2-yl)methoxy)-2-methoxyethyl)phosphonic acid]
≤ 100 nM | CC(CO)(OC[C@H]1O[C@@H](n2ncc3c(NC4CCCC4)nc(C#CCO)nc32)[C@H](O)[C@@H]1O)P(=O)(O)O (stereo partly drawn) [Example 89, (2-(((2R,3S,4R,5R)-5-(4-(Cyclopentylamino)-6-(3-hydroxyprop-1-yn-1-yl)-1H-pyrazolo[3,4-d]pyrimidin-1-yl)-3,4-dihydroxytetrahydrofuran-2-yl)methoxy)-1-hydroxypropan-2-yl)phosphonic acid]
≤ 100 nM | O=P(O)(O)CS(=O)(=O)C[C@H]1O[C@@H](n2ncc3c(NC4CCCC4)cc(Cl)nc32)[C@H](O)[C@@H]1O [Example 162, (((((2S,3S,4R,5R)-5-(6-chloro-4-(cyclopentylamino)-1H-pyrazolo[3,4-b]pyridin-1-yl)-3,4-dihydroxytetrahydrofuran-2-yl)methyl)sulfonyl)methyl)phosphonic acid]
≤ 100 nM | C[C@@](CO)(OC[C@H]1O[C@@H](n2ncc3c(NC4CCCC4)nc(OCCO)nc32)[C@H](O)[C@@H]1O)P(=O)(O)O [Example 134, ((R)-2-(((2R,3S,4R,5R)-5-(4-(cyclopentylamino)-6-(2-hydroxyethoxy)-1H-pyrazolo[3,4-d]pyrimidin-1-yl)-3,4-dihydroxytetrahydrofuran-2-yl)methoxy)-1-hydroxypropan-2-yl)phosphonic acid]
≤ 100 nM | COCC(C)(OC[C@H]1O[C@@H](n2nnc3c(N[C@@H]4CCc5ccccc54)nc(Cl)nc32)[C@H](O)[C@@H]1O)P(=O)(O)O (stereo partly drawn) [Example 155, (2-(((2R,3S,4R,5R)-5-(5-chloro-7-(((R)-2,3-dihydro-1H-inden-1-yl)amino)-3H-[1,2,3]triazolo[4,5-d]pyrimidin-3-yl)-3,4-dihydroxytetrahydrofuran-2-yl)methoxy)-1-methoxypropan-2-yl)phosphonic acid]
≤ 100 nM | O=P(O)(O)[C@](CO)(Cc1nn[nH]n1)OC[C@H]1O[C@@H](n2ncc3c(NC4CCCC4)nc(CO)nc32)[C@H](O)[C@@H]1O (racemic) [Example 217, rac-((R)-2-(((2S,3R,4S,5S)-5-(4-(cyclopentylamino)-6-(hydroxymethyl)-1H-pyrazolo[3,4-d]pyrimidin-1-yl)-3,4-dihydroxytetrahydrofuran-2-yl)methoxy)-1-hydroxy-3-(2H-tetrazol-5-yl)propan-2-yl)phosphonic acid]
≤ 100 nM | COCC(CC(=O)O)(OC[C@H]1O[C@@H](n2ncc3c(NC4CCCC4)nc(Cl)nc32)[C@H](O)[C@@H]1O)P(=O)(O)O (mixture of isomers) [Example 210, rac-3-(((2R,3S,4R,5R)-5-(6-chloro-4-(cyclopentyalmino)-1H-pyrazolo[3,4-d]pyrimidin-1-yl)-3,4-dihydroxytetrahydrofuran-2-yl)methoxy)-4-methoxy-3-phosphonobutanoic acid]
≤ 100 nM | O=P(O)(O)C(CO)(COCC(F)(F)F)OC[C@H]1O[C@@H](n2ncc3c(NC4CCCC4)nc(Cl)nc32)[C@H](O)[C@@H]1O (mixture of isomers) [Example 207, rac-(2-(((2R,3S,4R,5R)-5-(6-chloro-4-(cyclopentylamino)-1H-pyrazolo[3,4-d]pyrimidin-1-yl)-3,4-dihydroxytetrahydrofuran-2-yl)methoxy)-1-hydroxy-3-(2,2,2-trifluoroethoxy)propan-2-yl)phosphonic acid]
≤ 100 nM | CC(OC[C@H]1O[C@@H](n2ncc3c(NC4CCCC4)nc(Cl)nc32)[C@H](O)[C@@H]1O)P(=O)(O)O (stereo partly drawn) [Example 5, (1-(((2R,3S,4R,5R)-5-(6-Chloro-4-(cyclopentylamino)-1H-pyrazolo[3,4-d]pyrimidin-1-yl)-3,4-dihydroxytetrahydrofuran-2-yl)methoxy)ethyl)phosphonic acid]
≤ 100 nM | C[C@@H]1CCC[C@@H]1Nc1nc(Cl)nc2c1cnn2[C@@H]1O[C@H](COC(CO)(CO)P(=O)(O)O)[C@@H](O)[C@H]1O (racemic) [Example 228, rac-(2-(((2R,3S,4R,5R)-5-(6-chloro-4-(((1S,2R)-2-methylcyclopentyl)amino)-1H-pyrazolo[3,4-d]pyrimidin-1-yl)-3,4-dihydroxytetrahydrofuran-2-yl)methoxy)-1,3-dihydroxypropan-2-yl)phosphonic acid]
≤ 100 nM | COCC(OC[C@H]1O[C@@H](n2nnc3c(NC4CCCC4)nc(Cl)nc32)[C@H](O)[C@@H]1O)P(=O)(O)O (stereo partly drawn) [Example 142, (1-(((2R,3S,4R,5R)-5-(5-chloro-7-(cyclopentylamino)-3H-[1,2,3]triazolo[4,5-d]pyrimidin-3-yl)-3,4-dihydroxytetrahydrofuran-2-yl)methoxy)-2-methoxyethyl)phosphonic acid]
100 to 1000 nM | Cn1cnc(CC(CO)(OC[C@H]2O[C@@H](n3ncc4c(NC5CCCC5)nc(Cl)nc43)[C@H](O)[C@@H]2O)P(=O)(O)O)c1 (stereo partly drawn) [Example 94, (2-(((2R,3S,4R,5R)-5-(6-chloro-4-(cyclopentylamino)-1H-pyrazolo[3,4-d]pyrimidin-1-yl)-3,4-dihydroxytetrahydrofuran-2-yl)methoxy)-1-hydroxy-3-(1-methyl-1H-imidazol-4-yl)propan-2-yl)phosphonic acid]
100 to 1000 nM | O=C(O)c1ccc(C[C@](CO)(OC[C@H]2O[C@@H](n3ncc4c(NC5CCCC5)nc(Cl)nc43)[C@H](O)[C@@H]2O)P(=O)(O)O)cc1 (racemic) [Example 188, rac-4-((R)-2-(((2S,3R,4S,5S)-5-(6-chloro-4-(cyclopentylamino)-1H-pyrazolo[3,4-d]pyrimidin-1-yl)-3,4-dihydroxytetrahydrofuran-2-yl)methoxy)-3-hydroxy-2-phosphonopropyl)benzoic acid]
≤ 100 nM | CC(CO)(OC[C@H]1O[C@@H](n2nnc3c(NC4CCCC4)cc(Cl)nc32)[C@H](O)[C@@H]1O)P(=O)(O)O (stereo partly drawn) [Example 66, (2-(((2R,3S,4R,5R)-5-(5-chloro-7-(cyclopentylamino)-3H-[1,2,3]triazolo[4,5-b]pyridin-3-yl)-3,4-dihydroxytetrahydrofuran-2-yl)methoxy)-1-hydroxypropan-2-yl)phosphonic acid]
≤ 100 nM | C[C@H](Nc1nc(Cl)nc2c1cnn2[C@@H]1O[C@H](COC(C)(CO)P(=O)(O)O)[C@@H](O)[C@H]1O)c1ccc(F)cc1 (mixture of isomers) [Example 183, rac-(2-(((2R,3S,4R,5R)-5-(6-chloro-4-(((S)-1-(4-fluorophenyl)ethyl)amino)-1H-pyrazolo[3,4-d]pyrimidin-1-yl)-3,4-dihydroxytetrahydrofuran-2-yl)methoxy)-1-hydroxypropane-2-yl)phosphonic acid]
